# Source: patent publication US20240373851A1, “PEST CONTROL COMPOSITION AND PEST CONTROL METHOD” (SUMITOMO CHEMICAL COMPANY, LIMITED, priority 2021, published 2024)
# Columns and labels:
# Assay type in all cases: in vivo
# [1] = system: German cockroaches (Blattella germanica); experiment: Test Example 6: control test against German cockroaches, spray in chamber; conditions: adult German cockroaches; 1.5 mL sprayed; concentration [%]: isocycloseram 0.05, imiprothrin 0.01, lambda-cyhalothrin 0.0025, alone or mixed; 60 minutes after spraying
# Protocol: (§1) Next, the usefulness of the inventive composition for controlling pests will be indicated by Test Examples. In general, the control effect to be expected when treated with a mixture obtained by mixing given two or three types of active ingredient compounds is determined by the Colby's calculation equation represented by the following [Equation 1] and [Equation 2].
# (§2) [formula] • P: moribund and mortal rates (%) when treated with an active ingredient compound X in the concentration of m [ppm] • Q: moribund and mortal rates (%) when treated with an active ingredient compound Y in the concentration of n [ppm] • EA: moribund and mortal rates (%) when treated with an active ingredient compound X in the concentration of m [ppm] and an active ingredient compound Y in the concentration of n [ppm] (hereinafter referred to as expected value A) […]
# (§3) Regarding the synergistic effect of three types of the active ingredient compounds, in case where the moribund and mortal rates (%) when actually treated with a mixture obtained by mixing three types of the active ingredient compounds exceed the expected value A calculated by using the moribund and mortal rates (%) when actually treated with a mixture obtained by mixing two types of the active ingredient compounds among three types thereof, and the moribund and mortal rates (%) calculated when actually treated the remaining one type of the active ingredient compound, or the expected value B (%) calculated from the moribund and mortal rates (%) when actually treated with each of three types of the active ingredient compounds alone, it was determined that the synergistic effect exists. […]
# [2] = system: German cockroaches (Blattella germanica); experiment: Test Example 7: control test against German cockroaches, spray in chamber; conditions: adult German cockroaches; 1.5 mL sprayed; concentration [%]: isocycloseram 0.05, imiprothrin 0.01, cypermethrin 0.01, alone or mixed; 120 minutes after spraying
# Protocol: as §1, §2, §3
# [3] = system: German cockroaches (Blattella germanica); experiment: Test Example 9: control test against German cockroaches, spray in chamber; conditions: adult German cockroaches; 1.5 mL sprayed; concentration [%]: broflanilide 0.02, imiprothrin 0.01, permethrin 0.05, alone or mixed; 420 minutes after spraying
# Excerpt: Next, the usefulness of the inventive composition for controlling pests will be indicated by Test Examples.
# (hereinafter referred to as expected value A)
# (hereinafter referred to as expected value B)
# In a plastic cup (diameter: 12.4 cm, height: 10.2 cm) lined with a filter paper, ten adult German cockroaches (Blattella germanica) (five males and five females each) were released, and the plastic cup was placed in the center of the bottom of a box-shaped chamber (46 cm×46 cm×70 cm in height). From the height of 60 cm, 1.5 mL of each of formulations prepared by dissolving a single agent of any one of broflanilide, imiprothrin and permethrin, or a mixed agent of two or more thereof in a mixture of isopropyl alcohol and Isopar M at a mixing ratio of 1:9 was sprayed under a spray pressure of 0.041 MPa. After a lapse of 420 minutes from spraying, the number of dead and moribund individuals was examined, and moribund and mortal rates (%) were determined by the above equation 3. The test was performed through two replicates. Dead individuals are completely immobile individuals, and moribund individuals are individuals who cannot get up when turned on their backs.
# [4] = system: German cockroaches (Blattella germanica); experiment: Test Example 2: control test against German cockroaches, spray in chamber; conditions: adult German cockroaches; 1.5 mL sprayed; concentration [%]: nicofluprole 0.01, imiprothrin 0.01, cypermethrin 0.01, alone or mixed; 120 minutes after spraying
# Protocol: as §1, §2, §3
smiles,measurement,setting,value
"C#CCN1CC(=O)N(COC(=O)[C@@H]2C(C=C(C)C)C2(C)C)C1=O (mixture of isomers) [Imiprothrin, imiprothrin]",Moribund and mortal rates [%] after 60 minutes,[1],25%
same,Moribund and mortal rates [%] after 120 minutes,[2],5%
same,Moribund and mortal rates [%] after 420 minutes,[3],15%
same,Moribund and mortal rates [%] after 120 minutes,[4],15%
